Key:
[1] = test system: Cercospora nicotianae; assay: Action against Cercospora nicotianae on tobacco plants; type: in vivo
[2] = test system: Colletotrichum lagenarium; assay: Action against Colletotrichum lagenarium on Cucumis sativus L., foliar application; type: in vivo
[3] = test system: Colletotrichum lagenarium; assay: Action against Colletotrichum lagenarium on Cucumis sativus L., soil application; type: in vivo
[4] = test system: Erysiphe graminis; assay: Action against Erysiphe graminis on barley (residual-protective / systemic)
Method: Residual-protective action: Barley plants about 8 cm in height were sprayed to drip point with an aqueous spray mixture (max. 0.02 % active ingredient) and were dusted 3 to 4 days later with conidia of the fungus. The infected plants were stood in a greenhouse at 22°. Fungus infestation was generally evaluated 10 days after infection.
Systemic action: Barley plants about 8 cm in height were watered with an aqueous spray mixture (max. 0.002 % active ingredient, based on the volume of the soil). […] The plants were dusted with conidia of the fungus 3 to 4 days later. The infected plants were stood in a greenhouse at 22°. Fungus infestation was generally evaluated 10 days after infection.

Q: Which results are given for `CC(Cc1ccc(C(C)(C)C)cc1)CN1C[C@@H](C)O[C@@H](C)C1` (relative stereo) [fenpropimorph, cis-4-[3-(4-tert-butylphenyl)-2-methylpropyl]-2,6-dimethylmorpholine]?
A: % action O (observed) ([1]; Table 11, comp. II alone 2 kg a.i. per ha): 13%; % action O (observed) ([1]; Table 11, comp. II alone 6 kg a.i. per ha): 23%; % action O (observed) ([1]; Table 11, comp. II alone 10 kg a.i. per ha): 42%

Q: `CO/C=C(/C(=O)OC)c1ccccc1Oc1cc(Oc2ccccc2C#N)ncn1` [azoxystrobin, methyl-(E)-2-{2-[6-(2-cyanophenoxy)pyrimidin-4-yloxy]phenyl}-3-methoxyacrylate] was tested. Which “% action O (observed)” value ([2]; Table 4, comp. II alone 0.06 ppm) did it give?
A: 5%

Q: And the “% action O (observed)” value ([2]; Table 4, comp. II alone 0.2 ppm)?
A: 9%

Q: And the “% action O (observed)” value ([2]; Table 4, comp. II alone 0.6 ppm)?
A: 12%

Q: What about the “% action O (observed)” value ([2]; Table 4, comp. II alone 6 ppm) of the same molecule?
A: 17%

Q: What about the “% action O (observed)” value ([2]; Table 7, comp. II alone 2 ppm) of the same molecule?
A: 18%

Q: And the “% action O (observed)” value ([2]; Table 7, comp. II alone 6 ppm)?
A: 75%

Q: And the “% action O (observed)” value ([3]; Table 5, comp. II alone 0.2 ppm)?
A: 0%

Q: What about the “% action O (observed)” value ([3]; Table 5, comp. II alone 0.6 ppm) of the same molecule?
A: 9%

Q: And the “% action O (observed)” value ([3]; Table 5, comp. II alone 2 ppm)?
A: 28%

Q: And the “% action O (observed)” value ([3]; Table 5, comp. II alone 6 ppm)?
A: 66%

Q: What about the “% action O (observed)” value ([3]; Table 8, comp. II alone 0.02 ppm) of the same molecule?
A: 1%

Q: And the “% action O (observed)” value ([3]; Table 8, comp. II alone 0.06 ppm)?
A: 5%

Q: And the “% action O (observed)” value ([3]; Table 8, comp. II alone 0.6 ppm)?
A: 27%

Q: What about the “% action O (observed)” value ([3]; Table 8, comp. II alone 2 ppm) of the same molecule?
A: 61%

Q: And the “% action O (observed)” value ([3]; Table 8, comp. II alone 6 ppm)?
A: 93%

Q: For `CO/N=C(/C(=O)OC)c1ccccc1COc1ccccc1C` [cresoxime methyl, methyl-(E)-2-methoximino-2-[μ-(o-tolyloxy)-o-tolyl]acetate], which “% action O (observed)” value ([2]; Table 6, comp. II alone 2 ppm) is on record?
A: 0%

Q: And the “% action O (observed)” value ([2]; Table 6, comp. II alone 20 ppm)?
A: 41%

Q: How did the “% action O (observed)” value ([1]; Table 10, comp. II alone 2 ppm) turn out when `CC(C1CC1)C(O)(Cn1cncn1)c1ccc(Cl)cc1` (stereo not shown) [cyproconazol, μ-(4-chlorophenyl)-μ-(1-cyclopropylethyl)-1H-1,2,4-triazole-1-ethanol] was run?
A: 0%

Q: And the “% action O (observed)” value ([1]; Table 10, comp. II alone 6 ppm)?
A: 0%

Q: Which results are given for `CC1COC(Cn2cncn2)(c2ccc(Oc3ccc(Cl)cc3)cc2Cl)O1` (stereo not shown) [difenoconazole, 1-{2-[2-chloro-4-(4-chlorophenoxy)phenyl]-4-methyl-1,3-dioxolan-2-ylmethy 1)-1H-1,2,4-triazole]?
A: % action O (observed) ([1]; Table 12, comp. II alone 0.6 kg a.i. per ha): 3%; % action O (observed) ([1]; Table 12, comp. II alone 2 kg a.i. per ha): 23%; % action O (observed) ([1]; Table 12, comp. II alone 6 kg a.i. per ha): 32%

Q: Which “% action O (observed)” value ([4]; Table 1, comp. II alone 0.6 ppm) does the source give for `CC1(C)CCC(Cc2ccc(Cl)cc2)C1(O)Cn1cncn1` (stereo not shown) [metconazol, 5-(4-chlorobenzyl)-2,2-dimethyl-1-(1H-1,2,4-triazol-1-ylmethyl)-cyclopentanol] here?
A: 10%

Q: And the “% action O (observed)” value ([4]; Table 1, comp. II alone 2 ppm)?
A: 40%

Q: And the “% action O (observed)” value ([4]; Table 1, comp. II alone 6 ppm)?
A: 51%

Q: And the “% action O (observed)” value ([4]; Table 1, comp. II alone 20 ppm)?
A: 65%

Q: What about the “% action O (observed)” value ([4]; Table 3, comp. II alone 6 ppm) of the same molecule?
A: 17%

Q: What about the “% action O (observed)” value ([4]; Table 3, comp. II alone 20 ppm) of the same molecule?
A: 33%

Q: What about the “% action O (observed)” value ([4]; Table 3, comp. II alone 60 ppm) of the same molecule?
A: 50%

Q: For `CC(C)(C)C(O)(CCc1ccc(Cl)cc1)Cn1cncn1` (stereo not shown) [tebuconazol, μ-[2-(4-chlorophenyl)ethyl]-μ-(1,1-dimethylethyl)-1H-1,2,4-triazole-1-ethanol], which “% action O (observed)” value ([1]; Table 9, comp. II alone 2 ppm) is on record?
A: 0%

Q: What about the “% action O (observed)” value ([1]; Table 9, comp. II alone 6 ppm) of the same molecule?
A: 0%

Reference: patent US20020133846A1, “Method for protecting plants” (priority 1996, published 2002)
